From patent US20230105982A1, “INSULIN-INCRETIN CONJUGATES” (Merck Sharp & Dohme Corp., priority 2021, published 2023) come the findings set out here.

Common to all, as to assay type: cell-based
The target in one experiment is T1, human GCGR (Homo sapiens, UniProt P47871).
T1 construct: expressed in transfected cells
Description: cAMP activity assay, cells expressing human GCGR. The settings on record: for GCGR/GLP1R ratio: ratio of hGCGR EC50 to hGLP1R EC50, Table 5. The procedure:
(§1) Activity of the incretin peptides or the conjugates at the Glucagon receptor (GCGR) and GLP-1 receptor (GLP1R) may be measured in a cAMP activity assay as follows.
(§2) Peptides are dissolved in 100% DMSO and serially diluted to generate 10 point titrations. The peptide solutions are then transferred into 384-well assay plates (150 nL/well). Assay ready frozen cells expressing human GLP1R or human GCGR are suspended in growth media consisting of DMEM medium (GIBCO), 10% FBS (GIBCO), 1×NEAA(GIBCO), 1×P/S (GIBCO), 10 μg/mL Blasticidin (GIBCO) and 200 μg/mL Hygromycin (GIBCO). […] The cell suspensions (15 μL) are then added to the assay plates containing the peptide solutions (30,000 cells/well for human GCGR; 10,000 cells/well for human GLP1R). The cells are incubated for one hour at room temperature in the dark.
(§3) Production of cAMP may be determined using HitHunter™ cAMPXS kits (DiscoverX) following the manufacturer's protocol. The plates are incubated for overnight at room temperature in the dark. Luminescence may be measured using an EnVision Multilabel plate reader (Perkin Elmer). Native GLP-1 and Glucagon (Bachem) may be used as control peptides. EC50 values may be calculated using uses a 4 parameter logistic fit based on the Levenberg-Marquardt algorithm.

A further experiment has as its system minipig IR. The experiment is described as follows: Insulin Receptor Phosphorylation (pAkt) Assay, CHO cells overexpressing minipig IR. The conditions noted are these: Table 7, read-out: Insulin Receptor pAK Assay EC50 Minipig.
The next experiment has as its target human GLP1R (Homo sapiens, UniProt P43220). The experiment is described as follows: cAMP activity assay, cells expressing human GLP1R. The settings on record: hGLP1R EC50. Here is the method: as §1, §2, §3

T1 sequence (P47871 26-477): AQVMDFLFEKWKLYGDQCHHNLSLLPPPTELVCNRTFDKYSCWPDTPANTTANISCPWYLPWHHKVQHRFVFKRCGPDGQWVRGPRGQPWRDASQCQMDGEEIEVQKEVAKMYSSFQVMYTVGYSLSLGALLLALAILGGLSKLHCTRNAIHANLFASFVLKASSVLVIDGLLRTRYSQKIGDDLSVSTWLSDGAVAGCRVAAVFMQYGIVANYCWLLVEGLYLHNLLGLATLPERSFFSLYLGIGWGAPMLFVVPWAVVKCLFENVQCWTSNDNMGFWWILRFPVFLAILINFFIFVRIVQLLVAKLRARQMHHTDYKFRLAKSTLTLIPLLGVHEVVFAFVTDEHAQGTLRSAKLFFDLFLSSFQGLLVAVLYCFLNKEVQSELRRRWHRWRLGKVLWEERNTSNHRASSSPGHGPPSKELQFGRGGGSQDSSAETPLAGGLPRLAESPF
Sequence of human GLP1R (P43220 24-463): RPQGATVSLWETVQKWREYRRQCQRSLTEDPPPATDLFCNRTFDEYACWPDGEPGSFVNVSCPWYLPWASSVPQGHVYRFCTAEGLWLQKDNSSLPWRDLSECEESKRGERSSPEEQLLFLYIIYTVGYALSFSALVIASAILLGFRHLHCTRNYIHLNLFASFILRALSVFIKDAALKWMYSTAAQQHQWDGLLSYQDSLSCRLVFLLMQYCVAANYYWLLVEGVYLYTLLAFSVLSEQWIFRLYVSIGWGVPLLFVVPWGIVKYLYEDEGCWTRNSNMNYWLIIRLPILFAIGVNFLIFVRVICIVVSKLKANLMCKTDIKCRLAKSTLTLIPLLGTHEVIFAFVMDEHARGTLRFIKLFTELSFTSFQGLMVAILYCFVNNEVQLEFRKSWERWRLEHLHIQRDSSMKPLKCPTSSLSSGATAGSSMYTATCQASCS

For the compound `CCCCCCCCCCCCCCCC(=O)N[C@@H](CCC(=O)N[C@@H](CCC(=O)NCCCC[C@H](NC(=O)[C@H](CC(=O)O)NC(=O)[C@H](CO)NC(=O)[C@@H](NC(=O)[C@H](Cc1ccccc1)NC(=O)[C@@H](NC(=O)CNC(=O)[C@H](CCC(N)=O)NC(=O)[C@@H](CO)NC(=O)[C@@H](N)Cc1c[nH]cn1)[C@@H](C)O)[C@@H](C)O)C(=O)N[C@@H](CO)C(=O)N[C@@H](CCCCN)C(=O)N[C@@H](Cc1ccc(O)cc1)C(=O)N[C@@H](CC(C)C)C(=O)N[C@@H](CC(=O)O)C(=O)NC(C)(C)C(=O)N[C@@H](CCCNC(=N)N)C(=O)N[C@@H](C)C(=O)N[C@@H](C)C(=O)N[C@@H](CCC(N)=O)C(=O)N[C@@H](CC(=O)O)C(=O)N[C@@H](Cc1ccccc1)C(=O)N[C@H](C(=O)N[C@@H](CCCCN=[N+]=[N-])C(=O)N[C@@H](Cc1c[nH]c2ccccc12)C(=O)N[C@@H](CC(C)C)C(=O)N[C@@H](CC(C)C)C(=O)N[C@@H](CC(=O)O)C(=O)N[C@H](C(N)=O)[C@@H](C)O)C(C)C)C(=O)O)C(=O)O` [PEP7], on human GCGR, the GCGR/GLP1R ratio was 0.2.
Turning to Insulin levemir [IL], the EC50 in the experiment on minipig IR is 0.5 nM.
`CCCCCCCCCCCCCCCC(=O)N[C@@H](CCC(=O)N[C@@H](CCC(=O)NCCCC[C@H](NC(=O)[C@H](CC(=O)O)NC(=O)[C@H](CO)NC(=O)[C@@H](NC(=O)[C@H](Cc1ccccc1)NC(=O)[C@@H](NC(=O)CNC(=O)[C@H](CCC(N)=O)NC(=O)[C@@H](CO)NC(=O)[C@@H](N)Cc1c[nH]cn1)[C@@H](C)O)[C@@H](C)O)C(=O)N[C@@H](CO)C(=O)N[C@@H](CCCCN)C(=O)N[C@@H](Cc1ccc(O)cc1)C(=O)N[C@@H](CC(C)C)C(=O)N[C@@H](CC(=O)O)C(=O)N[C@@H](CCC(=O)O)C(=O)N[C@@H](CCCNC(=N)N)C(=O)N[C@@H](C)C(=O)N[C@@H](C)C(=O)N[C@@H](CCC(N)=O)C(=O)N[C@@H](CC(=O)O)C(=O)N[C@@H](Cc1ccccc1)C(=O)N[C@H](C(=O)N[C@@H](CCCCNC(=O)COCCOCCNC(=O)COCCOCCNC(=O)CCCCN=[N+]=[N-])C(=O)N[C@@H](Cc1c[nH]c2ccccc12)C(=O)N[C@@H](CC(C)C)C(=O)N[C@@H](CC(C)C)C(=O)N[C@@H](CC(=O)O)C(=O)N[C@H](C(N)=O)[C@@H](C)O)C(C)C)C(=O)O)C(=O)O` [PEP15]: the figures for the EC50 at human GCGR (hGCGR_EC50) and on human GLP1R were 0.02 nM and 0.03 nM, respectively. The GCGR/GLP1R ratio on human GCGR stood at 0.7.

For orientation: EC50 means the concentration giving half of the maximal effect.
